{
  "source": "patent US8940861B2",
  "about": "“Variants of ancestral uricases and uses thereof” (Georgia Tech Research Corporation, priority 2010, dated 2015)",
  "key": {"[1]": {"target": "T1, pig uricase, SEQ ID NO:10 (Sus scrofa, UniProt P16164)", "T1 sequence (P16164 1-304)": "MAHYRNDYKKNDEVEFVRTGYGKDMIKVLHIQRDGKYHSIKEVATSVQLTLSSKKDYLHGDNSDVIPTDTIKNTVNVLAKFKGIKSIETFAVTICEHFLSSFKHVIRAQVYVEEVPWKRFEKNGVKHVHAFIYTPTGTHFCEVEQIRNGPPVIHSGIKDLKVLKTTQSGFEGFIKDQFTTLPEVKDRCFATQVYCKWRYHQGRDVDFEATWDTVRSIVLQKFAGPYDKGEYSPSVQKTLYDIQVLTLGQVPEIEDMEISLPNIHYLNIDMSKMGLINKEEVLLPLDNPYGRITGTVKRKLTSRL", "details": "0.1M Na2HPO4/Na2H2PO4, pH 7.4; 24° C."}, "[2]": {"tested_on": "pig-baboon chimeric uricase (amino acids 1-225 of SEQ ID NO:10 and amino acids 226-304 of SEQ ID NO:11)", "assay": "Uricolytic activity, A293 decrease, steady-state kinetics", "type": "biochemical", "details": "0.1M Na2HPO4/Na2H2PO4, pH 7.4; 24° C."}, "[3]": {"tested_on": "ancestral mammalian uricase Node 19 (four identical subunits), SEQ ID NO:2", "assay": "Uricolytic activity, A293 decrease, steady-state kinetics", "type": "biochemical", "details": "0.1M Na2HPO4/Na2H2PO4, pH 7.4; 24° C.", "from_the_text": "(§1) Uricases were designed using Ancestral Sequence Reconstruction (ASR) to reconstruct and resurrect ancestral forms of human uricase based upon an analysis of modern mammalian uricases. See generally Gaucher, “Ancestral sequence reconstruction as a tool to understand natural history and guide synthetic biology: Realizing (and extending) the vision of Zukerkandl and Pauling” in ANCESTRAL SEQUENCE RECONSTRUCTION, ed. David A. Liberles, pp. 20-33 (Oxford University Press, 2007). Ancestral uricase sequences corresponding to various nodes of the phylogenetic tree were inferred by analyzing modern mammalian uricase sequences (FIG. 1), and uricases were designed based upon those inferred sequences. Uricase subunits of the present invention may therefore comprise an amino acid sequence corresponding to the inferred amino acid sequence at one of the nodes highlighted in FIG. 1 (e.g., Node 18, Node 19, Node 26, Node 27, Node 30, Node 31 or Node 32) or to a variant of the inferred amino acid sequence at one of the nodes highlighted in FIG. 1."}, "[4]": {"tested_on": "ancestral mammalian uricase Node 26 (four identical subunits), SEQ ID NO:3", "assay": "Uricolytic activity, A293 decrease, steady-state kinetics", "type": "biochemical", "details": "phosphate buffered saline, pH 7.4", "from_the_text": "as §1"}, "[5]": {"tested_on": "ancestral mammalian uricase Node 27 (four identical subunits), SEQ ID NO:4", "assay": "Uricolytic activity, A293 decrease, steady-state kinetics", "type": "biochemical", "details": "phosphate buffered saline, pH 7.4; 24° C.", "from_the_text": "as §1"}},
  "data": [
    {"compound": "O=c1[nH]c(=O)c2[nH]c(=O)[nH]c2[nH]1", "note": "[uric acid]", "values": [
      {"measurement": "Vmax", "setting": "[1]", "value": "2.4 × 10^−3 μmol uric acid/min"},
      {"measurement": "Km", "setting": "[2]", "value": 2.2, "unit": "µM"},
      {"measurement": "Vmax", "setting": "[2]", "value": "2.8 × 10^−3 μmol uric acid/min"},
      {"measurement": "kcat", "setting": "[2]", "value": 4.78, "unit": "s⁻¹"},
      {"measurement": "Km", "setting": "[3]", "value": 4, "unit": "µM"},
      {"measurement": "Vmax", "setting": "[3]", "value": "4.3 × 10^−3 μmol uric acid/min"},
      {"measurement": "kcat", "setting": "[3]", "value": 5.42, "unit": "s⁻¹"},
      {"measurement": "Km", "setting": "[4]; 24° C.", "value": 4.9, "unit": "µM"},
      {"measurement": "Vmax", "setting": "[4]; 24° C.", "value": "1.4 × 10^−3 μmol uric acid/min"},
      {"measurement": "kcat", "setting": "[4]; 24° C.", "value": 1.25, "unit": "s⁻¹"},
      {"measurement": "Km", "setting": "[4]; 37° C.", "value": 4.9, "unit": "µM"},
      {"measurement": "Vmax", "setting": "[4]; 37° C.", "value": "4.3 × 10^−3 μmol uric acid/min"},
      {"measurement": "kcat", "setting": "[4]; 37° C.", "value": 3.75, "unit": "s⁻¹"},
      {"measurement": "Km", "setting": "[5]", "value": 5.3, "unit": "µM"},
      {"measurement": "Vmax", "setting": "[5]", "value": "8.1 × 10^−4 μmol uric acid/min"},
      {"measurement": "kcat", "setting": "[5]", "value": 0.417, "unit": "s⁻¹"}
    ]}
  ]
}
